Results: US20240197729A1, “ALK-5 Inhibitors and Uses Thereof” (Sumitomo Pharma Oncology, Inc., priority 2021, published 2024)
Where two headings read alike, the source gives them in different places. Blank lines part the entries; values can stand above or below the compound they belong to.

Assays:
[1] = tested on: TGF-β1-mediated αSMA expression; assay: Fibroblast to myofibroblast transformation (FMT) assay; details: for IC50: Homo sapiens, Fibroblast
Method: (§4) To test the ability of selected compounds to inhibit the TGF-β1-dependent transition of fibroblasts to myofibroblasts in a relevant disease model of IPF, an FMT assay was performed using lung fibroblasts from IPF patients. In this assay, the transition of fibroblasts to myofibroblasts is determined by the expression of the biomarker alpha smooth muscle actin (α-SMA).
(§5) Primary human bronchial fibroblasts derived from IPF patients were seeded on day zero and the media was refreshed on day two. On day five, selected compounds or controls were added at an eight-point concentration response curve starting at 10 μM (semi-log dilutions). Each drug concentration condition was evaluated in biological duplicates. […] Seventy-two hours following TGF-beta addition, the cells were fixed with formaldehyde. High content imaging evaluating cell number using the nuclear stain DAPI as well as the expression of a-SMA was performed. The following controls were run alongside the selected compounds: vactosertib and the approved IPF drug nintedanib (at an eight-point, semi-log curve with 10 μM starting concentration). As a negative control 0.1% DMSO was also used, matching the DMSO concentration in treated wells. The following calculations were used to determine cell number as well as percent inhibition (PIN) of alpha SMA expression:
(§6) • Segmentation and quantification of αSMA immunoreactivity by an HCA algorithm, with density×area (D×A) output • Data normalization of raw αSMA (D×A) to percentage inhibition (PIN) values, on a plate-to-plate basis
(§7) • DAPI fluorescence applied for HCA-based quantification of the number of imaged cells, on a plate-to-plate basis
(§8) [formula] • μn is the average numbers of nuclei of the vehicle control (TGF-β1+0.1% DMSO) • Xi is the compound number of nuclei

[2] = tested on: TGF-β1-mediated αSMA expression; details: human, 73 h
Method: as §4, §5, §6, §7, §8

[3] = tested on: BMP-6/ALK2/Hepcidin pathway; assay: ALK2 off-target assay, hepcidin mRNA in HepG2 hepatocytes; type: cell-based, human; details: HepG2, 40 ng/ml BMP-6, 3 h; read-out: IC50, hepcidin mRNA expression
Method: In this study, LDN214117 (an ALK2 inhibitor available from Selleck Chemicals S7627) was included as a positive control, and vactosertib (an ALK5 inhibitor available from MedChem Express HY-19928) was included as a negative control.
HepG2 human hepatocytes (ATCC HB-8065) were seeded in EMEM (ATCC30-2003)+10% FBS in 96-well plate and allowed to grow overnight at 5% CO2 at 37° C. The next day, cells were pre-treated with selected compounds (Compound 01, 04 or 05) or one of the control compounds at various concentrations, or with vehicle (DMSO) for one hour. Cells were then stimulated with recombinant human BMP-6 (R&D Systems 507-BP-020) at a final concentration of 40 ng/ml, in the presence of test compound or DMSO for three hours. A no-BMP-6 stimulation condition was included for baseline hepcidin level measurement.
Hepcidin mRNA expression was measured by real-time RT-PCR with Cells-to-CT 1-Step TaqMan Kit (ThermoFisher A25603) following manufacturer's instructions. GAPDH levels were measured, and served as a normalization control. Hepcidin primer: TaqMan HAMP-FAM/MGB 20×(ThermoFisher 4331182); GAPDH primer: TaqMan GAPDH-VIC/MGB 20×(ThermoFisher 4326317E). Delta-delta Ct method was used to obtain relative Hepcidin expression.
The selected compounds and control compounds LDN214117 and vactosertib were tested at drug concentrations of 20 micromolar to 1.22 nanomolar at 4-fold serial dilution. All wells contained the same DMSO concentrations. IC50 values were calculated using nonlinear regression model with GraphPad Prism software. The results of the ALK-2 off-target assay are reported in Table 3B, where “++” indicates 0.1 μM<IC50≤1 μM and “+++” indicates […].

[4] = tested on: p-STAT3 (Tyr 705); assay: A549 xenograft assay, p-STAT3; type: in vivo, mice
Description: (§1) To test compounds for inhibition of in vivo on-target activity (ALK5/TGF-bR1 inhibition) as well as potential Janus Kinase (JAK) signaling off-target activity, the A549 murine xenograft model was utilized. An ALK5 inhibitor (e.g., vactosertib) is expected to reduce the amount of the TGF-beta signaling molecule phospho-SMAD-2 (pSMAD2) in the A549 xenograft cells. The TGF-beta-mediated phosphorylation of SMAD2 in A549 cells takes place at amino acid residue four hundred and sixty-five and four hundred and sixty-seven (both are serine residues). A JAK inhibitor (e.g., ruxolitinib) is expected to reduce the phosphorylation of signal transducer and activator of transcription (STAT) proteins such as STAT3 at amino acid residue 705 (tyrosine).
(§2) At eight weeks of age, female athymic nude mice (purchased from Charles River) were injected with approximately 3.5 million A549 cells (ATCC, CCL-185). Specifically, cells were harvested and resuspended in plain RPMI media (no phenol red added) and Matrigel (Corning 356237) at a one to one ratio, and two hundred-microliters were injected into the right hind flank of each mouse. Tumors were measured every three days by caliper and as tumors reached an average of seventy-eighty millimeters cubed, mice were randomized in groups of three. All compounds were resuspended in 1-methyl-2-pyrrolidinone (Sigma 494496) (10%) plus 20% Solutol (Sigma 42966) in water (90%). Vactosertib and ruxolitinib were included as controls as ALK5 signaling inhibitor and JAK signaling inhibitor, respectively. Both controls were given at seventy-five milligrams per kilogram to three mice. The drug suspensions were sonicated for fifteen minutes to generate a fine particle suspension before being given to the mice. Mice were dosed (per oral gavage) with drug at one hundred, seventy-five, fifty, or ten milligrams per kilogram, with three mice per group. A vehicle control group with three mice was used to establish the baseline level of phospho-SMAD-2 in the tumor xenograft.
(§3) Four hours after drug administration, tumors were harvested, snap frozen and stored at negative eighty degrees Celsius until further processing. The phospho-SMAD-2 levels were determined using the Bio-Plex Pro™ Phospho-Smad2 (Ser465/Ser467) Set (BioRad 171V50019M). The phospho STAT3 levels were determined using the bead/antibody set from the MILLIPLEXMAP STAT Cell Signaling Magnetic Bead 5-Plex Kit (Millipore 48-610MAG). Both phospho SMAD-2 levels and phospho STAT3 levels were normalized to ß-Tubulin (MILLIPLEX MAP ß-Tubulin Total Magnetic Bead MAPmate™, Millipore 46-713MAG) or GAPDH (MILLIPLEX MAP GAPDH Total Magnetic Bead MAPmate™, Millipore 46-667MAG) levels from each sample. All analytes were analyzed in a multiplex fashion with the Bio-Plex Pro Cell Signaling Reagent Kit (BioRad 171304006M). Briefly, frozen tumor (fifteen to thirty milligrams) was lysed in 100 μl lysis buffer, processed in bead mill tube, and centrifuged. The resulting lysate was used at 1:50 dilution for the assay according to the manufacturer's instructions. Bead suspension was analyzed using the Luminex system (MAGPIX).

[5] = tested on: JAK signaling; assay: JAK selectivity assay, HEK blue IL-12 reporter; type: cell-based; details: 12.5 ng/ml IL-12, 24 h
Method: The cells were purchased from Invivogen (Catalog Nr: hkb-il12) and maintained according to vendor instructions. On the day of the experiment, cells were harvested by repeated tapping of the flask to shake loose the cells attached to the bottom of the flask. Then, cells were harvested, washed and resuspended in DMEM media supplemented with 10% fetal calf serum. 30 Microliters of cell suspension was seeded into a 384-well tissue culture-coated plate containing approximately 10,000 total cells. […] Using the ECHO “Dose Response” software, the test compound was added in duplicate wells with a 3-fold dilution curve. DMSO was back-filled to normalize the DMSO across all wells. […] After 30 minutes of incubation at room temperature, the optical density was measured at 620 nanometer using the Perkin Elmer Envision plate reader. A color change can be detected at this wavelength when secreted alkaline phosphatase, which is triggered by IL-12 signaling, is present in the supernatant. […]

[6] = tested on: phospho-SMAD-2 (Ser465/Ser467); assay: A549 xenograft assay, p-SMAD2; type: in vivo, mice; details: 75 mg/kg per oral gavage, tumors 4 h after dosing
Description: as §1, §2, §3

Compound: COC(=O)c1ccc2c(c1)NC(=O)/C2=C(\Nc1ccc(N(C)C(=O)CN2CCN(C)CC2)cc1)c1ccccc1 [Nintedanib, nintedanib, reference compound]
- IC50 ([1]; read-out: Average IC50 (nM), average of donors IPF03, IPF06, IPF08): 833 nM
- IC50 ([1]; read-out: IC50 αSMA, donor IPF03): 600 nM
- IC50 ([1]; read-out: IC50 αSMA, donor IPF06): 1500 nM
- IC50 ([1]; read-out: IC50 αSMA, donor IPF08): 400 nM
- IC50 ([1]; read-out: pIC50 αSMA, donor IPF03 (converted)): 631 nM
- IC50 ([1]; read-out: pIC50 αSMA, donor IPF06 (converted)): 1580 nM
- IC50 ([1]; read-out: pIC50 αSMA, donor IPF08 (converted)): 398 nM
- Max PIN (%) ([1]; donor IPF03): 90%
- Max PIN (%) ([1]; donor IPF06): 104%
- Max PIN (%) ([1]; donor IPF08): 94%
- Potentially toxic concentration [2]: 5.0

Compound: COc1cc(-c2cc(-c3ccc(N4CCNCC4)cc3)cnc2C)cc(OC)c1OC [LDN214117, reference compound]
- IC50 [3]: 100 to 1000 nM

- IC50 [5]: 31 nM
Compound: N#CC[C@H](C1CCCC1)n1cc(-c2ncnc3[nH]ccc23)cn1 [Ruxolitinib, ruxolitinib, reference compound]
- Average % p-STAT3 (Tyr 705) of vehicle ([4]; 75 mg/kg per oral gavage, tumors 4 h after dosing): 10%
- inhibition of the phosphorylation of STAT3 in tumor samples ([4]; 75 milligrams per kilogram): 90%
- Average % p-SMAD2 (Ser 465/467) of vehicle [6]: 120%
